In brackets after ≈: the same amount, converted by molar mass.
Legend:
Escherichia coli = test: Antibacterial activity against […] assessed as zone of inhibition by cup-plate agar diffusion method; type: functional
Staphylococcus aureus [1] = test: Antibacterial activity against Staphylococcus aureus ATCC6538 assessed as zone of inhibition by cup-plate agar diffusion method; type: functional
Klebsiella pneumoniae = test: Antibacterial activity against Klebsiella pneumoniae ATCC10031 assessed as zone of inhibition by cup-plate agar diffusion method; type: functional
Pseudomonas aeruginosa = test: Antibacterial activity against Pseudomonas aeruginosa ATCC27853 assessed as zone of inhibition by cup-plate agar diffusion method; type: functional
Staphylococcus aureus [2] = test: Antibacterial activity against methicillin-resistant Staphylococcus aureus AUMC 261 assessed as zone of inhibition by cup-plate agar diffusion method; type: functional
DNA gyrase = DNA gyrase (Escherichia coli, UniProt P0AES4+P0AES6); test: Inhibition of Escherichia coli DNA gyrase supercoiling activity using […] as substrate incubated for 15 to 30 mins by agarose gel electrophoresis analysis; type: protein-complex assay
[3] = Inhibition of Escherichia coli topoisomerase 4 mediated relaxation of supercoiled pHOT1 DNA at expense of ATP hydrolysis by ethidium bromide staining based agarose gel electrophoresis

Structure (SMILES)	MIC (Escherichia coli)	MIC (Staphylococcus aureus [1])	MIC (Klebsiella pneumoniae)	MIC (Pseudomonas aeruginosa)	MIC (Staphylococcus aureus [2])	IC50 (DNA gyrase)	IC50 [3]
COc1cc(/C=C2\C(=N)N=C(SCC(=O)N3CCN(c4cc5c(cc4F)c(=O)c(C(=O)O)cn5C4CC4)CC3)NC2=O)ccc1O	2.41 µM (≈ 1.56 µg/mL)	7.58 µM (≈ 4.92 µg/mL)	4.81 µM (≈ 3.12 µg/mL)	> 100 µM	1.57 µM (≈ 1.02 µg/mL)	–	–
CCCCSc1nc(NC(=O)CN2CCN(c3cc4c(cc3F)c(=O)c(C(=O)O)cn4C3CC3)CC2)cc(=O)[nH]1	2.73 µM (≈ 1.56 µg/mL)	17.5 µM (≈ 10 µg/mL)	5.47 µM (≈ 3.12 µg/mL)	> 100 µM	–	–	–
O=C(CSc1nc(NC(=O)CN2CCN(c3cc4c(cc3F)c(=O)c(C(=O)O)cn4C3CC3)CC2)cc(=O)[nH]1)Nc1ccccc1	9.66 µM (≈ 6.26 µg/mL)	> 100 µM	19.3 µM (≈ 12.5 µg/mL)	> 100 µM	–	–	–
COc1cc(/C=C2\C(=N)N=C(SCC(=O)N3CCN(c4cc5c(cc4F)c(=O)c(C(=O)O)cn5C4CC4)CC3)NC2=O)cc(OC)c1OC	4.51 µM (≈ 3.12 µg/mL)	4.25 µM (≈ 2.94 µg/mL)	9.03 µM (≈ 6.26 µg/mL)	> 100 µM	0.096 µM (≈ 0.0665 µg/mL)	–	–
CSc1nc(NC(=O)CN2CCN(c3cc4c(cc3F)c(=O)c(C(=O)O)cn4C3CC3)CC2)cc(=O)[nH]1	2.95 µM (≈ 1.56 µg/mL)	2.37 µM (≈ 1.25 µg/mL)	5.91 µM (≈ 3.12 µg/mL)	> 100 µM	0.046 µM (≈ 0.0243 µg/mL)	5.72 µM	7.77 µM
O=C(CSc1nc(NC(=O)CN2CCN(c3cc4c(cc3F)c(=O)c(C(=O)O)cn4C3CC3)CC2)cc(=O)[nH]1)Nc1ccc(Cl)cc1	18.4 µM (≈ 12.5 µg/mL)	14.7 µM (≈ 10 µg/mL)	4.58 µM (≈ 3.12 µg/mL)	> 100 µM	7.22 µM (≈ 4.93 µg/mL)	–	–
COc1ccc(/C=C2\C(=N)N=C(SCC(=O)N3CCN(c4cc5c(cc4F)c(=O)c(C(=O)O)cn5C4CC4)CC3)NC2=O)cc1	4.94 µM (≈ 3.13 µg/mL)	15.8 µM (≈ 10 µg/mL)	2.47 µM (≈ 1.56 µg/mL)	> 100 µM	2.43 µM (≈ 1.54 µg/mL)	–	–
O=C(CN1CCN(c2cc3c(cc2F)c(=O)c(C(=O)O)cn3C2CC2)CC1)Nc1cc(=O)[nH]c(=O)[nH]1	0.78 µM (≈ 0.389 µg/mL)	1.25 µM (≈ 0.623 µg/mL)	1.57 µM (≈ 0.783 µg/mL)	> 100 µM	0.031 µM (≈ 0.0155 µg/mL)	1.72 µM	4.36 µM
O=C(O)c1cn(C2CC2)c2cc(N3CCNCC3)c(F)cc2c1=O [CIPROFLOXACIN]	0.6 µM (≈ 0.199 µg/mL)	7.58 µM (≈ 2.51 µg/mL)	1.21 µM (≈ 0.401 µg/mL)	0.6 µM (≈ 0.199 µg/mL)	0.57 µM (≈ 0.189 µg/mL)	–	8.16 µM

Further lines, with some results ahead:

MIC (Escherichia coli)	MIC (Staphylococcus aureus [1])	MIC (Klebsiella pneumoniae)	MIC (Pseudomonas aeruginosa)	Structure (SMILES)	MIC (Staphylococcus aureus [2])	IC50 (DNA gyrase)	IC50 [3]
11.6 µM (≈ 6.25 µg/mL)	18.5 µM (≈ 10 µg/mL)	11.6 µM (≈ 6.25 µg/mL)	> 100 µM	CCCn1c(=O)cc(NC(=O)CN2CCN(c3cc4c(cc3F)c(=O)c(C(=O)O)cn4C3CC3)CC2)[nH]c1=O	–	–	–
18.9 µM (≈ 12.5 µg/mL)	> 100 µM	37.8 µM (≈ 25 µg/mL)	> 100 µM	Cc1ccc(NC(=O)CSc2nc(NC(=O)CN3CCN(c4cc5c(cc4F)c(=O)c(C(=O)O)cn5C4CC4)CC3)cc(=O)[nH]2)cc1	–	–	–
4.59 µM (≈ 3.13 µg/mL)	> 100 µM	9.19 µM (≈ 6.26 µg/mL)	> 100 µM	N=C1N=C(SCC(=O)N2CCN(c3cc4c(cc3F)c(=O)c(C(=O)O)cn4C3CC3)CC2)NC(=O)/C1=C/c1ccc(Br)cc1	–	–	–
4.61 µM (≈ 3.12 µg/mL)	> 100 µM	18.5 µM (≈ 12.5 µg/mL)	> 100 µM	COc1ccc(NC(=O)CSc2nc(NC(=O)CN3CCN(c4cc5c(cc4F)c(=O)c(C(=O)O)cn5C4CC4)CC3)cc(=O)[nH]2)cc1	–	–	–
1.48 µM (≈ 0.779 µg/mL)	> 100 µM	2.97 µM (≈ 1.56 µg/mL)	2.97 µM (≈ 1.56 µg/mL)	Cn1c(NC(=O)CN2CCN(c3cc4c(cc3F)c(=O)c(C(=O)O)cn4C3CC3)CC2)cc(=O)n(C)c1=O	–	–	–
4.91 µM (≈ 3.13 µg/mL)	> 100 µM	4.91 µM (≈ 3.13 µg/mL)	> 100 µM	N=C1N=C(SCC(=O)N2CCN(c3cc4c(cc3F)c(=O)c(C(=O)O)cn4C3CC3)CC2)NC(=O)/C1=C/c1ccc(Cl)cc1	–	–	–
5.03 µM (≈ 3.12 µg/mL)	> 100 µM	20.2 µM (≈ 12.5 µg/mL)	> 100 µM	N=C1N=C(SCC(=O)N2CCN(c3cc4c(cc3F)c(=O)c(C(=O)O)cn4C3CC3)CC2)NC(=O)/C1=C/c1ccc(F)cc1	–	–	–
3.05 µM (≈ 1.56 µg/mL)	> 100 µM	6.1 µM (≈ 3.13 µg/mL)	> 100 µM	Cn1c(=O)cc(NC(=O)CN2CCN(c3cc4c(cc3F)c(=O)c(C(=O)O)cn4C3CC3)CC2)[nH]c1=O	–	–	–
4.71 µM (≈ 3.12 µg/mL)	> 100 µM	4.71 µM (≈ 3.12 µg/mL)	2.97 µM (≈ 1.97 µg/mL)	COc1ccc(/C=C2\C(=N)N=C(SCC(=O)N3CCN(c4cc5c(cc4F)c(=O)c(C(=O)O)cn5C4CC4)CC3)NC2=O)cc1OC	–	–	–
11.3 µM (≈ 6.26 µg/mL)	18.1 µM (≈ 10 µg/mL)	22.6 µM (≈ 12.5 µg/mL)	> 100 µM	C=CCSc1nc(NC(=O)CN2CCN(c3cc4c(cc3F)c(=O)c(C(=O)O)cn4C3CC3)CC2)cc(=O)[nH]1	–	–	–
5.61 µM (≈ 3.12 µg/mL)	18 µM (≈ 10 µg/mL)	11.2 µM (≈ 6.26 µg/mL)	> 100 µM	CCCSc1nc(NC(=O)CN2CCN(c3cc4c(cc3F)c(=O)c(C(=O)O)cn4C3CC3)CC2)cc(=O)[nH]1	–	–	–
1.3 µM (≈ 0.783 µg/mL)	> 100 µM	5.18 µM (≈ 3.12 µg/mL)	2.59 µM (≈ 1.56 µg/mL)	N=C1N=C(SCC(=O)N2CCN(c3cc4c(cc3F)c(=O)c(C(=O)O)cn4C3CC3)CC2)NC(=O)/C1=C/c1ccccc1	–	–	–

Source: ChEMBL document CHEMBL5214940, “New potent ciprofloxacin-uracil conjugates as DNA gyrase and topoisomerase IV inhibitors against methicillin-resistant Staphylococcus aureus” (Bioorg Med Chem, 2022)
